The results in this text go back to patent US20020106347A1, “Cytokines and their use in treatment and/or prophylaxis of breast cancer” (priority 1995, published 2002).

“Also recorded” adds a separate entry of the source.

Holding throughout (format): cell-based, human
The test system of assay [1] is MCF-7 cells. Kind of assay: Proliferation of MCF-7 cells in monolayer (liquid) culture, viable cell count. As to conditions: for mean inhibition of cell proliferation: MCF-7, 7 days exposure, LIF 1000 U/ml, IL-6 100 ng/ml, OSM 10 ng/ml, IL-11 100 ng/ml, vs untreated control; for effect on cell proliferation (in words): MCF-7 / MCF-7M, up to 1 week culture. As to the method:
FIGS. 2A, B and C are graphical representations of MCF-7M cells in liquid culture. 10^4 MCF-7M cells were cultured in 500 μl RPMI/10% bovine calf serum (BCS) (v/v) containing the indicated concentration of each of the growth factors (OSM or LIF). After 7 days culture viable cells were counted using a hemacytometer. Cell numbers reported here are the result of one experiment, each performed in triplicate.
FIG. 7 is a graphical representation showing inhibition of proliferation of MCF-7 cells by Oncostatin M (OSM). 10^4 MCF-7 cells were cultured in 500 μl RPMI/10% (v/v) BCS with the indicated concentrations of OSM. At 2, 4 and 6 days, viable cells were counted using a hemacytometer. Results are from 3 experiments, each performed in triplicate.
FIG. 8 is a graphical representation showing that MCF-7 cells are inhibited in a dose-dependent fashion by Oncostatin M (OSM). 10^4 MCF-7 cells were cultured in 500 μl RPMI/10% (v/v) BCS with the indicated concentrations of OSM. After 7 days viable cells were counted, and cell number expressed as a percentage of the corresponding untreated control value.
FIG. 16 is a graphical representation showing inhibition of MCF-7 cells after 7 days in suspension culture. 10^4MCF-7 cells were cultured in 500 μl RPMI/10% (v/v) BCS with the indicated growth factor. After 7 days viable cells were counted using a hemacytometer. Results are from 9 experiments, each performed in triplicate.
Proliferation of the cell lines was measured in monolayer culture in 24 well Costar cluster plates. Cells were plated at an initial density of 10 000 cells/ml and cultured in 500 μl RPMI-1640 supplemented with 10% (v/v) (v/v) BCS and with each growth factor as indicated (LIF, 1000 U/ml; IL-6, 100 ng/ml; OSM, 10 ng/ml; CNTF, 10 ng/ml; IL-11, 100 ng/ml). These concentrations are maximally active in other systems (Nandurkar et al., 1996; Hilton et al., 1994; Zhang et al., 1994; Tanigawa et al., 1995). After 7 or 10 days at 37° C. in a fully humidified atmosphere containing 10% (v/v) CO2 in air, cells were trypsinised and counted using a haemocytometer and an inverted microscope. Cell viability was assessed using eosin exclusion. Results were expressed as a percentage of the corresponding untreated control value for that experiment.

Assay [2] has as its system MCF-7 cells. Kind of assay: Cell morphology after exposure to growth factor. As to conditions: MCF-7 / MCF-7M, 6-14 days in growth factor. The text has this: FIG. 4 is a photographic representation showing morphology of growth factor stimulated MCF-7M cells. Following 1 week in suspension culture containing the various growth factors, MCF-7M cells were cytospun onto slides and subsequently stained with Giemsa.
FIG. 11 is a photographic representation showing cell morphology after exposure to OSM. MCF-7 cells from control cultures and appears of cells after 7 days in OSM. A) Control cells, 10× magnification. B) OSM treated cells, 10× magnification. C) OSM treated cells, 40× magnification. D) OSM treated cells, 100× magnification.
FIG. 15 is a photographic representation showing cell morphology after exposure to OSM. MCF-7 cells from control cultures (Panel A) and appearance of cells after culture for 14 days in OSM (10 ng/ml) (Panel B). MDA-MB-231 cells from control cultures (Panel C) and appearance of cells after culture for 7 days in OSM (Panel D).

For assay [3], the system named is primary normal breast cells. Kind of assay: Growth of primary normal breast cells in suspension culture. As to conditions: serum free breast media, 7 days. As to the method: FIG. 6 is a graphical representation of primary normal breast cells in suspension culture. 10^4 primary normal breast cells were cultured in 500 μl serum free breast media containing the indicated concentration of each of the growth factors (OSM and […]). After 7 days culture viable cells were counted using a hemacytometer. Cell numbers reported here are the results of 1 experiment, performed in triplicate.
Sterile normal breast tissue was obtained from reduction mammoplasty surgery. […] After 18 hours the mixture was centrifuged at 600 RCF/5 min, the supernatant discarded and the remaining cell pellet washed twice in RPMI-1640 supplemented with 10% (v/v) (v/v) BCS. […] Single cells adhered to the culture flasks and from these islands of cells epithelial cells grew. The media was subsequently removed and replaced with serum-free breast media. Partial trypsinisation removed any contaminating fibroblasts and the cells remaining were 95-100% epithelial. Cells were subsequently grown for approximately 30 days in the serum free breast media.

In assay [4] the test system is MCF-7 cells. Kind of assay: Northern analysis of mRNA expression after OSM. The following applies: OSM 10 ng/ml. As to the method: FIG. 12 is a photographic representation showing effect of OSM on the expression of Transforming Growth Factor α (TGFα), Epidemal Growth Factor Receptor (EGFR), Prolactin Receptor (PRLR), Estrogen Receptor (ER) and LIF mRNA. Cells growing in the presence of 10% (v/v) BCS were treated with OSM (10 ng/ml) and at the indicated time points duplicate 150 cm^2 flasks were harvested and mRNA extracted for Northern analysis. Results for control cells (C) are also shown. The same filter has been probed successively with a ^32P-labelled cDNA corresponding to each mRNA species. mRNA loading was evaluated by reprobing the filter with a fragment complementary to GAPDH. mRNA species of the following sizes were obtained: TGFα, 4.8 kb; PRLR, 10.5 and 8.6 kb; EGFR, 10.5 and 5.8 kb; ER, 6.5 and 3.8 kb and LIF, approx. 4.8 kb.
Cells havested from duplicate flasks were pooled and poly A+ mRNA extracted by an oligo-dT cellulose procedure (Boehringer Mannheim). Northern analysis was performed using 5 μg RNA per lane. Membranes (Hybond-C extra-Amersham) were hybridised (42° C. overnight) with probes labelled with α-^32P dCTP (bresatec). The membranes were washed at a stringency of 0.2× SSC (30 mM NaCl, 3 mM sodium citrate, pH 7.0)-0.1% (w/v) sodium dodecyl sulfate at 65° C. and exposed to Kodak X-Omat film at −70° C. mRNA loading was estimated by hybridising membranes with a 1.3 kb cDNA complementary to GAPDH.
Cells growing in the presence of 10% (v/v) BCS were treated with OSM (10 ng/ml) and at the indicated time points duplicate 150 cm^2 flasks were harvested and mRNA extracted for Northern analysis. Results for control cells (C) are also shown. The same filter has been probed successively with a ^32P-labelled cDNA corresponding to each mRNA species. mRNA loading was evaluated by reprobing the filter with a fragment complementary to GAPDH. mRNA species of the following sizes were obtained: TGFα, 4.8 kb; PRLR, 10.5 and 8.6 kb; EGFR, 10.5 and 5.8 kb; ER, 6.5 and 3.8 kb and LIF, approx. 4.8 kb.

The mark [5] stands for this setting: from 2 hours, maintained for 48 hours.

For Leukemia Inhibitory Factor [LIF], in the assay on MCF-7 cells [1], the “mean inhibition of cell proliferation” value stood at 37% and the “effect on cell proliferation (in words)” value is on record as “induced inhibition”. Moreover, in the assay with MCF-7 cells [2], the “cell morphology (in words)” value is recorded as “appeared larger than the control cells”.

For the substance oncostatin M [OSM], in the assay with MCF-7 cells [1] (MCF-7, 7 days exposure to OSM, 9 experiments), the “inhibition of cell proliferation, up to (maximum observed)” value is recorded as “up to 94%”. In the assay on MCF-7 cells [1], the “mean inhibition of cell proliferation” value was 85% and the “effect on cell proliferation (in words)” value is reported as “inhibition of cell proliferation; also recorded: inhibition of cellular proliferation”. In addition, the “effect on proliferation (in words)” value in assay [3] was “profoundly inhibited the proliferation”. For the same substance, the “cell morphology (in words)” value in the assay on MCF-7 cells [2] is “more abundant cytoplasm and vacuolation; also recorded: more fibroblastic phenotype; also recorded: larger and more vacuolated than control cells”. Moreover, in the assay with MCF-7 cells [4], the “abundance of TGFα transcript (in words)” value was “equivalent to control cells” and the “level of LIF transcript (in words)” value is reported as “upregulates”. Moreover, in the assay with MCF-7 cells [4] (between 4-12 hours), the “elevation of EGFR mRNA abundance” value was “at least 5 fold”. In addition, in the assay with MCF-7 cells [4] (setting [5]), the “level of expression of Estrogen Receptor (ER) mRNA (in words)” value is listed as “down regulate” and the “level of expression of Prolactin Receptor (PRLR) mRNA (in words)” value was “down regulate”.
